Structures can show the parent of a compound that is named as a salt.
Target: T1, Calcium sensing receptor (hCaSR) (Homo sapiens, UniProt P41180)
T1 construct: expressed in transfected cells; host or cells: HEK293 (stably transfected)
T1 sequence (P41180 20-1078): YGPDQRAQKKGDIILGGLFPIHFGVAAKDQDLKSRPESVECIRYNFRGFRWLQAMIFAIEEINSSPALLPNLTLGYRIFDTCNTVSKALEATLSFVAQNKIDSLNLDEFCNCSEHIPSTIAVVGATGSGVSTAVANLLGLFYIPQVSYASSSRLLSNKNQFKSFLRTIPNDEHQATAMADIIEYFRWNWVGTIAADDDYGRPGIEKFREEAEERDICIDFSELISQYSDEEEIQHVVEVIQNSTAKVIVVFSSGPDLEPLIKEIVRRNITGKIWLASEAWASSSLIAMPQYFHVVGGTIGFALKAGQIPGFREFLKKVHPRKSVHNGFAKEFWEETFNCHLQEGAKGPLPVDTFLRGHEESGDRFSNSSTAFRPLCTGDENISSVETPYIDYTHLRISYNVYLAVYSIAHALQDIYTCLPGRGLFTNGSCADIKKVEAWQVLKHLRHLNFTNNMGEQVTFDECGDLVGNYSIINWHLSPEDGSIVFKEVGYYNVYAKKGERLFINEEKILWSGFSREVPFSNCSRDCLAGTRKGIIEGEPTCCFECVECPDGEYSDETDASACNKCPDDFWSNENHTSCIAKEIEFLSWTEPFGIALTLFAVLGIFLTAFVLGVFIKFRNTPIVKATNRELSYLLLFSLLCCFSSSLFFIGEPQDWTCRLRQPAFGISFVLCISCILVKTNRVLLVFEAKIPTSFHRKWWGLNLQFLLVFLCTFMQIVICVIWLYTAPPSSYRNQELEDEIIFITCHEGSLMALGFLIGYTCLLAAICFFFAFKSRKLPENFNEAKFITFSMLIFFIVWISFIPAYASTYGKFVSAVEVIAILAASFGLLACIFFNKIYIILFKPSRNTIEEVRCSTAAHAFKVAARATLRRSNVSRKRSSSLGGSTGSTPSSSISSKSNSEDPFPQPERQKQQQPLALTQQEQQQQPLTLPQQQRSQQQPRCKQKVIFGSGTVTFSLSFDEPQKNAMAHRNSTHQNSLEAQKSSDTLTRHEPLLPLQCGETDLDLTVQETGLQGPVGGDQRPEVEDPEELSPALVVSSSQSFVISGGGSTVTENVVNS
Experiment: In-vitro assay of calcimimetics through modulation of calcium sensing receptor (intracellular calcium increase, FLIPR)
Assay type: cell-based
Settings: stably transfected HEK293 cells expressing hCaSR; Fluo4NW dye; 0.3 mM CaCl2; 8-point assay; read-out: EC50 in range
Protocol: In-Vitro Assay Method of Calcimimetics Through Modulation of Calcium Sensing Receptor (CaSR): The ability of the compounds to modulate Calcium sensing receptor is determined by measuring an increase in intracellular calcium [Ca^2+]i. Stably transfected HEK293 cells expressing hCaSR_pTriEx-3 hygro vector are developed. Cells are grown overnight on a 96-well plate to 80% confluency in Ham's F12 containing 20% FBS at 37° C., 5% CO2. Subsequently, cells are washed extensively with 20 mM HEPES buffer containing 126 mM […], 1 mM MgCl2 and 4 mM KCl to remove serum components that might interfere with the assay. Cells are loaded with calcium sensing Fluo4NW dye in HEPES base buffer containing 0.1% BSA and 1 mg/ml glucose for 30 minutes to measure changes in intracellular calcium. The activities of the compounds are measured in FLIPR using 0.3 mM CaCl2 in 20 mM HEPES base buffer. The effectiveness of the compound to modulate receptor activity is determined by calculating the EC50 responses for that compound in an 8-point assay and plotted using GraphPad Prism 5.

Compound | EC50
CC(N[C@H](C)c1cccc2ccccc12)c1cc(-c2ccc(C(F)(F)F)cc2)c2ccccc2c1 (single isomer, unassigned) [Example 9a, hydrochloride] | 20 to 50 nM
CC(N[C@H](C)c1cccc2ccccc12)c1cc(-c2ccc(C(F)(F)F)cc2)c2ccccc2c1 (single isomer, unassigned) [Example 9b, hydrochloride] | < 20 nM
C[C@@H](NCc1cc(-c2ccc(C(F)(F)F)cc2)c2ccccc2c1)c1cccc2ccccc12 [Example 1, (R)-1-(Naphthalen-1-yl)-N-((4-(4-(trifluoromethyl)phenyl)naphthalen-2-yl)methyl)ethanamine hydrochloride] | < 20 nM
COc1cc([C@@H](C)NCc2cc(-c3ccc(C(F)(F)F)cc3)c3ccccc3c2)ccc1F [Example 2, (R)-1-(4-Fluoro-3-methoxyphenyl)-N-((4-(4-(trifluoromethyl)phenyl)naphthalen-2-yl)methyl)ethanamine hydrochloride] | 20 to 50 nM
C[C@@H](NCc1cc(-c2cccc(C(F)(F)F)c2)c2ccccc2c1)c1cccc2ccccc12 [Example 3, (R)-1-(Naphthalen-1-yl)-N-((4-(3-(trifluoromethyl)phenyl)naphthalen-2-yl)methyl)ethanamine hydrochloride] | < 20 nM
COc1cc([C@@H](C)NCc2cc(-c3cccc(C(F)(F)F)c3)c3ccccc3c2)ccc1F [Example 4, (R)-1-(4-Fluoro-3-methoxyphenyl)-N-((4-(3-(trifluoromethyl)phenyl)naphthalen-2-yl)methyl)ethanamine hydrochloride] | 20 to 50 nM
COc1cccc([C@@H](C)NCCCc2cc(-c3ccc(C(F)(F)F)cc3)c3ccccc3c2)c1 [Example 5, (R)-N-(1-(3-Methoxyphenyl)ethyl)-3-(4-(4-(trifluoromethyl)phenyl)naphthalen-2-yl)propan-1-amine hydrochloride] | 20 to 50 nM
COc1cccc([C@@H](C)NC(C)c2cc(-c3ccc(C(F)(F)F)cc3)c3ccccc3c2)c1 (stereo partly drawn) [Example 6, (R)-1-(3-Methoxyphenyl)-N-(1-(4-(4-(trifluoromethyl)phenyl)naphthalen-2-yl)ethyl)ethanamine hydrochloride] | < 20 nM
COc1cccc([C@@H](C)NC(C)c2cc(-c3ccc(OC)c(F)c3)c3ccccc3c2)c1 (stereo partly drawn) [Example 7, 1-(4-(3-Fluoro-4-methoxyphenyl)naphthalen-2-yl)-N-((R)-1-(3-methoxyphenyl)ethyl)ethanamine hydrochloride] | < 20 nM
COc1ccc(-c2cc(C(C)N[C@H](C)c3cccc(Cl)c3)cc3ccccc23)cc1F (stereo partly drawn) [Example 8, (1R)-1-(3-Chlorophenyl)-N-(1-(4-(3-fluoro-4-methoxyphenyl)naphthalen-2-yl)ethyl)ethanamine hydrochloride] | < 20 nM
CC(N[C@H](C)c1cccc(Cl)c1)c1cc(-c2ccc(C(F)(F)F)cc2)c2ccccc2c1 (stereo partly drawn) [Example 10, (1R)-1-(3-Chlorophenyl)-N-(1-(4-(4-(trifluoromethyl)phenyl)naphthalen-2-yl)ethyl)ethanamine hydrochloride] | < 20 nM

Results, then the compound that gave them:

EC50 | Compound
< 20 nM | COc1cc([C@@H](C)NC(C)c2cc(-c3ccc(C(F)(F)F)cc3)c3ccccc3c2)ccc1F (mixture of isomers) [Example 11, (1R)-1-(4-Fluoro-3-methoxyphenyl)-N-(1-(4-(4-(trifluoromethyl)phenyl)naphthalen-2-yl)ethyl)ethanamine hydrochloride]
< 20 nM | COc1cccc([C@@H](C)NC(C)c2cc(-c3ccc(F)cc3)c3ccccc3c2)c1 (mixture of isomers) [Example 15, 1-(4-(4-Fluorophenyl)naphthalen-2-yl)-N-((R)-1-(3-methoxyphenyl)ethyl)ethanamine hydrochloride]
< 20 nM | CC(N[C@H](C)c1cccc(Cl)c1)c1cc(-c2ccc(C3(F)COC3)cc2)c2ccccc2c1 (mixture of isomers) [Example 23, (1R)-1-(3-chlorophenyl)-N-(1-(4-(4-(3-fluorooxetan-3-yl)phenyl)naphthalen-2-yl)ethyl)ethanamine hydrochloride]
20 to 50 nM | CC(C)OC(=O)CCc1cc(F)cc(-c2cc(C(C)N[C@H](C)c3cccc(Cl)c3)cc3ccccc23)c1 (mixture of isomers) [Example 153, Isopropyl 3-(3-(3-(1-(((R)-1-(3-chlorophenyl)ethyl)amino)ethyl)naphthalen-1-yl)-5-fluorophenyl) propanoate hydrochloride]
20 to 50 nM | CC(N[C@H](C)c1cccc(Cl)c1)c1cc(-c2cc(F)cc(CCC(=O)O)c2)c2ccccc2c1 (mixture of isomers) [Example 156, 3-(3-(3-(1-(((R)-1-(3-Chlorophenyl)ethyl)amino)ethyl)naphthalen-1-yl)-5-fluorophenyl)propanoic acid hydrochloride]
< 20 nM | CCC(N[C@H](C)c1cccc(OC)c1)c1cc(-c2ccc(C(F)(F)F)cc2)c2ccccc2c1 (single isomer, unassigned) [Example 18a, hydrochloride]
20 to 50 nM | COc1cccc([C@@H](C)NC(C)c2cc(-c3ccc(C)c(C(=O)O)c3)c3ccccc3c2)c1 (single isomer, unassigned) [Example 114b, hydrochloride]
50 to 400 nM | COc1cc(F)cc(C(C)NC(C)c2cc(-c3ccc(C(F)(F)F)cc3)c3ccccc3c2)c1 (single isomer, unassigned) [Example 163a, 1-(3-Fluoro-5-methoxyphenyl)-N-(1-(4-(4-(trifluoromethyl)phenyl)naphthalen-2-yl)ethyl)ethanamine hydrochloride]
20 to 50 nM | COc1cc(F)cc(C(C)NC(C)c2cc(-c3ccc(C(F)(F)F)cc3)c3ccccc3c2)c1 (single isomer, unassigned) [Example 163b, 1-(3-Fluoro-5-methoxyphenyl)-N-(1-(4-(4-(trifluoromethyl)phenyl)naphthalen-2-yl)ethyl)ethanamine hydrochloride]
< 20 nM | CCOc1cccc([C@@H](C)NC(C)c2cc(-c3ccc(C(F)(F)F)cc3)c3ccccc3c2)c1 (stereo partly drawn) [Example 12, (1R)-1-(3-Ethoxyphenyl)-N-(1-(4-(4-(trifluoromethyl)phenyl)naphthalen-2-yl)ethyl)ethanamine hydrochloride]
< 20 nM | CC(N[C@H](C)c1cccc(F)c1)c1cc(-c2ccc(C(F)(F)F)cc2)c2ccccc2c1 (stereo partly drawn) [Example 13, (1R)-1-(3-Fluorophenyl)-N-(1-(4-(4-(trifluoromethyl)phenyl)naphthalen-2-yl)ethyl)ethanamine hydrochloride]
< 20 nM | CC(N[C@H](C)c1cccc(Cl)c1)c1cc(-c2cccc(C(F)(F)F)c2)c2ccccc2c1 (stereo partly drawn) [Example 14, (1R)-1-(3-Chlorophenyl)-N-(1-(4-(3-(trifluoromethyl)phenyl)naphthalen-2-yl)ethyl)ethanamine hydrochloride]
< 20 nM | CC(N[C@H](C)c1cccc(Cl)c1)c1cc(-c2ccc(F)cc2)c2ccccc2c1 (stereo partly drawn) [Example 16, (1R)-1-(3-Chlorophenyl)-N-(1-(4-(4-fluorophenyl)naphthalen-2-yl)ethyl)ethanamine hydrochloride]
50 to 400 nM | COc1cccc([C@@H](C)NC(C)c2cc(-c3ccc(S(C)(=O)=O)cc3)c3ccccc3c2)c1 (stereo partly drawn) [Example 17, (1R)-1-(3-Methoxyphenyl)-N-(1-(4-(4-(methylsulfonyl)phenyl)naphthalen-2-yl)ethyl)ethanamine hydrochloride]
< 20 nM | COc1cccc([C@@H](C)NC(C)c2cc(-c3ccc(OC(F)(F)F)cc3)c3ccccc3c2)c1 (stereo partly drawn) [Example 19, (1R)-1-(3-Methoxyphenyl)-N-(1-(4-(4-(trifluoromethoxy)phenyl)naphthalen-2-yl)ethyl)ethanamine hydrochloride]

Reference: patent publication US9493396B2, “Substituted naphthalene compounds as calcium sensing receptor modulators” (LUPIN ATLANTIS HOLDINGS SA, priority 2013, dated 2016)
